In patent US10633366B2, “Antibacterial compounds” (AZIENDE CHIMICHE RIUNITE ANGELINI FRANCESCO A.C.R.A.F. …, priority 2016, dated 2020):
pIC50: −log10 of the molar value. Read-outs that look alike come from different tables or passages of the source.

Experiments:
Assay in all cases: biochemical
[1] = biological target: S. aureus Topoisomerase IV (Staphylococcus aureus, UniProt P0C1S7+P0C1U9); details: for inhibition at 50 µM: read-out: % inhibition Topo IV
[2] = biological target: E. coli Topoisomerase IV (Escherichia coli, UniProt P0AFI2+P20083); details: for pIC50: IC50 Topo IV; for inhibition at 50 µM: read-out: % inhibition Topo IV
[3] = biological target: E. coli DNA gyrase (Escherichia coli, UniProt P0AES4+P0AES6); details: for pIC50: IC50 DNA gyrase; for inhibition at 50 µM: read-out: % inhibition DNA gyrase
[4] = biological target: S. aureus DNA gyrase (Staphylococcus aureus, UniProt P0A0K8+P20831); details: for pIC50: IC50 DNA gyrase; for inhibition at 50 µM: read-out: % inhibition DNA gyrase
[5] = S. aureus, compound conc. 50 μM, percent of inhibition versus positive control, n/a = not active

Chain of E. coli Topoisomerase IV (P0AFI2 whole entry): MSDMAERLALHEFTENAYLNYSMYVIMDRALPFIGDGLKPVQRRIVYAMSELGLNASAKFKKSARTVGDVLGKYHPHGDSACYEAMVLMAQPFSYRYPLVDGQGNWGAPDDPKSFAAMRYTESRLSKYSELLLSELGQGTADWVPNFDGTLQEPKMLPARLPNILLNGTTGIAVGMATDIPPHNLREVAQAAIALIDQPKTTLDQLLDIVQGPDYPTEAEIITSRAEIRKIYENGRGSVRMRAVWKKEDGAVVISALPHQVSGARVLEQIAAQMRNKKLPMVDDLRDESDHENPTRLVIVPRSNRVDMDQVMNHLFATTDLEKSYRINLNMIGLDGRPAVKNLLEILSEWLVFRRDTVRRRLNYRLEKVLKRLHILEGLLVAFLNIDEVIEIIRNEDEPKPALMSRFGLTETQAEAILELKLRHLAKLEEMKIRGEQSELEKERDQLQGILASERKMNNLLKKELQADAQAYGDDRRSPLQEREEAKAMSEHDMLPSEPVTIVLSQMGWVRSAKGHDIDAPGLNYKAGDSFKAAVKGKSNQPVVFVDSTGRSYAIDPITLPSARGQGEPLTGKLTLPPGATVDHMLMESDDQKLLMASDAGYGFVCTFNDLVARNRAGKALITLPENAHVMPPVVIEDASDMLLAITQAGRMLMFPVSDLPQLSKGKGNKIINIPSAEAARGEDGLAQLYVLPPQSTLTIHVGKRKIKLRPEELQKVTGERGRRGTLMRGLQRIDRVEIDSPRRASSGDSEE
Chain of E. coli Topoisomerase IV (P20083 whole entry): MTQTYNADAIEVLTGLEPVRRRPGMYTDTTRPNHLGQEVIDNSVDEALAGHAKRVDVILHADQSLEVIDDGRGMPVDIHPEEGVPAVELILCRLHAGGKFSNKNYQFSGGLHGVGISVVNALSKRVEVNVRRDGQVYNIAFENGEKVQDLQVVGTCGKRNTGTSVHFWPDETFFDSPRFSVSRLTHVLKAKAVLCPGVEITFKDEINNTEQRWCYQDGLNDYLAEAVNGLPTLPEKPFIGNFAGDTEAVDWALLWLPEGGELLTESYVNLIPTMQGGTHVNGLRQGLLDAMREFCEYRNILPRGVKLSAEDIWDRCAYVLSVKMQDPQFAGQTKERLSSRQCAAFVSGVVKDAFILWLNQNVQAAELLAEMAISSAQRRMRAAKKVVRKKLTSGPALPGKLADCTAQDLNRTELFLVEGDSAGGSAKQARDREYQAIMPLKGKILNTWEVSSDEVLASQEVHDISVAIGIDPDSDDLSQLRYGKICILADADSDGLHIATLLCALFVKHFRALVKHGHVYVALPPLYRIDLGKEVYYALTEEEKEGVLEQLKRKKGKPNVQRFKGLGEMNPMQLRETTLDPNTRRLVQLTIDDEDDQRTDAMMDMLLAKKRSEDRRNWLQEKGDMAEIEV
Chain of S. aureus Topoisomerase IV (P0C1U9 whole entry): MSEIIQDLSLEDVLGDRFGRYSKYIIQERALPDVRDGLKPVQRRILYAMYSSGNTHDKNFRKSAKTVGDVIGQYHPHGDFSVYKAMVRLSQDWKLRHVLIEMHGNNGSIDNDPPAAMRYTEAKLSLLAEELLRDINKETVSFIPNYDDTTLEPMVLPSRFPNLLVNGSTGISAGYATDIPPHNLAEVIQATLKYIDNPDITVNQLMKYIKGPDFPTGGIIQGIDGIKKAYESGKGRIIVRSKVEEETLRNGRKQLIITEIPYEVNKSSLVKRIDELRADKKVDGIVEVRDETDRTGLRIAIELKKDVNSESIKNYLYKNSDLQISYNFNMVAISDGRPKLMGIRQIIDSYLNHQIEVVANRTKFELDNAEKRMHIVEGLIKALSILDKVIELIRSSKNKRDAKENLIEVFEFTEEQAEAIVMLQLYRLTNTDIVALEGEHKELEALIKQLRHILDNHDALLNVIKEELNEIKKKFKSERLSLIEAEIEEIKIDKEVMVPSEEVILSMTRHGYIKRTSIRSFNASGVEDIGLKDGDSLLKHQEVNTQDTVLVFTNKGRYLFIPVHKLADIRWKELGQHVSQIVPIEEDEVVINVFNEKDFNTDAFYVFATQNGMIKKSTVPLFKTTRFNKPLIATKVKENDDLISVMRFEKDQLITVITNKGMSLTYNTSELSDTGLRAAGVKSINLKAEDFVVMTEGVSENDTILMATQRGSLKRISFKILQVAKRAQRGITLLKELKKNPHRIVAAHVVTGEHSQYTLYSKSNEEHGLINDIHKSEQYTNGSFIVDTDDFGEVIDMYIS
Chain of S. aureus Topoisomerase IV (P0C1S7 whole entry): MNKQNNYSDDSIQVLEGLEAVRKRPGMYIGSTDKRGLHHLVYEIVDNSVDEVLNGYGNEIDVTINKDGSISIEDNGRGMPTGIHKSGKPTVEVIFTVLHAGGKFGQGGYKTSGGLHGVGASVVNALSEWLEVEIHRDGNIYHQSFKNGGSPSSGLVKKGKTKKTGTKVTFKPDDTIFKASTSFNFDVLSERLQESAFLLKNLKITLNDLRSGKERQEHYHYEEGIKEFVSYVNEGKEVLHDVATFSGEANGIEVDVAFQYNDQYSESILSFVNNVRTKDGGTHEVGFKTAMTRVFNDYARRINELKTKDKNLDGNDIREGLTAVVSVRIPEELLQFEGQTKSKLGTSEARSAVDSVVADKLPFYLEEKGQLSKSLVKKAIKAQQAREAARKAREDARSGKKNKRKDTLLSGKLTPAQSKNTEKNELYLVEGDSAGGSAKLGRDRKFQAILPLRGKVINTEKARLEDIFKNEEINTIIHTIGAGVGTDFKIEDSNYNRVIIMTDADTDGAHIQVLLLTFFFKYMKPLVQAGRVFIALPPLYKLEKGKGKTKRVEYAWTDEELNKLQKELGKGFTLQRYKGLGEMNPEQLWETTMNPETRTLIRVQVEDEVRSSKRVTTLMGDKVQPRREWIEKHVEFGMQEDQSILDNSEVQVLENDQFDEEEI
Chain of S. aureus DNA gyrase (P0A0K8 whole entry): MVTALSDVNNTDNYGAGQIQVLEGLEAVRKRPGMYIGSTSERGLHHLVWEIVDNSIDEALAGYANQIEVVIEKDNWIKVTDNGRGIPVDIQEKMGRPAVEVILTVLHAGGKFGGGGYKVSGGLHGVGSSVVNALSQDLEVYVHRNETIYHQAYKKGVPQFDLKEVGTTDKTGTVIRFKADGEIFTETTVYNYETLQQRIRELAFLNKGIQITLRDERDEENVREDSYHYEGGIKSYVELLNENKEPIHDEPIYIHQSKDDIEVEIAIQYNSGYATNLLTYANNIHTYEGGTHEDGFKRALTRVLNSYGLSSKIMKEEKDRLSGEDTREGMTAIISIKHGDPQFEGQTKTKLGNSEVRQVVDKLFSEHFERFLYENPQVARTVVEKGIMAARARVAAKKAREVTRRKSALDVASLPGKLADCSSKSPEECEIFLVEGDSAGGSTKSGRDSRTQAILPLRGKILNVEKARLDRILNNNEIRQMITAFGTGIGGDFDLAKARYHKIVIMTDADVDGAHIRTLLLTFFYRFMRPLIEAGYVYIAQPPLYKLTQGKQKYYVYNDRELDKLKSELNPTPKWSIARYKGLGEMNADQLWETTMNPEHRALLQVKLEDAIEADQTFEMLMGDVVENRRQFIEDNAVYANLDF
Chain of S. aureus DNA gyrase (P20831 whole entry): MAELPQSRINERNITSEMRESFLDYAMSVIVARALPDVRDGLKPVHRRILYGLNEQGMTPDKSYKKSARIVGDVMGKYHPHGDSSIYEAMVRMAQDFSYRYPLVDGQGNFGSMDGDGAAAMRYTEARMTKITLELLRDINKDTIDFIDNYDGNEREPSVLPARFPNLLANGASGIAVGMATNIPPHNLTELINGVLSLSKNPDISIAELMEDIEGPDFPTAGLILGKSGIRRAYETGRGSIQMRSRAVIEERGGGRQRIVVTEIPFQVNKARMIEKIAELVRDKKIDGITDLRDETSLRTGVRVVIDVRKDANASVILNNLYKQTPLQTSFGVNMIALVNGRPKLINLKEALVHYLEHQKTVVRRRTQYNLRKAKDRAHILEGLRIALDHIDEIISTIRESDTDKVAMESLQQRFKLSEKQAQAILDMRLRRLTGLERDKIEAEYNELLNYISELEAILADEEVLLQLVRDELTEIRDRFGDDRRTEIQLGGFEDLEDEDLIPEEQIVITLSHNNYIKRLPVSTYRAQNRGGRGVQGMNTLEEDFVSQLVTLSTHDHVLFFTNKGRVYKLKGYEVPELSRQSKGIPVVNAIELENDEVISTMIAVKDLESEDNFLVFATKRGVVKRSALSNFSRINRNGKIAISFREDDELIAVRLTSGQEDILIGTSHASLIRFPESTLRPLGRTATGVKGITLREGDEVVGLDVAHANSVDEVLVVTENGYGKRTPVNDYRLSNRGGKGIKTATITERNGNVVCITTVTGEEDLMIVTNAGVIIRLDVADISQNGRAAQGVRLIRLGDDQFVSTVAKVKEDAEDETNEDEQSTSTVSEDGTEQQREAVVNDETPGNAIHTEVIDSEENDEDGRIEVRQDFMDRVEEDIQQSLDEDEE

Row | SMILES | pIC50 ([1]; IC50 Topo IV) | pIC50 [2] | pIC50 [3] | pIC50 [4] | inhibition at 50 µM [1, 5] [%] | % inhibition Topo IV [2] [%] | inhibition at 50 µM [3] [%] | inhibition at 50 µM [4] [%] | % inhibition Topo IV [1, 5] | % inhibition DNA gyrase [3] [%] | % inhibition DNA gyrase [4] [%] | pIC50 ([1]; S. aureus, Table 3, eight half-log concentrations ranging from 0.1 to 300 μM, read-out: IC50 Topo IV) | inhibition at 50 µM [1] [%] | inhibition at 50 µM [2] [%]
1 | O=c1cc(NCC(O)C2CCN(C[C@@H]3Cn4c(=O)ccc5ncc(=O)n3c54)CC2)c2cc(F)ccc2o1 (mixture of isomers) [Compound 343, (2R)-2-[(4-{2-[(6-fluoro-2-oxo-2H-1-benzopyran-4-yl)amino]-1-hydroxyethyl}piperidin-1-yl)methyl]-1,2-dihydro-3H,8H-2a,5,8a-triazaacenaphthylene-3,8-dione] | 5.06 | 5.90 | 6.04 | 5.70 | – | – | – | – | – | – | – | – | – | –
2 | O=c1oc2ccccc2c2[nH]c(CNCC3CCN(c4nccc5ccc(F)cc45)C3)cc12 (single isomer, unassigned) [Compound 180, 2-[({[1-(7-fluoroisoquinolin-1-yl)pyrrolidin-3-yl]methyl}amino)methyl][1]benzopyrano[4,3-b]pyrrol-4(1H)-one] | 6.96 | 5.42 | 6.32 | 5.77 | 50 | 57 | 58 | 90 | – | – | – | – | – | –
3 | O=c1oc2ccccc2c2[nH]c(CNCC3CCN(c4nccc5ccc(F)cc45)C3)cc12 (single isomer, unassigned) [Compound 181, 2-[({[1-(7-fluoroisoquinolin-1-yl)pyrrolidin-3-yl]methyl}amino)methyl][1]benzopyrano[4,3-b]pyrrol-4(1H)-one] | 6.44 | 5.44 | 6.36 | 6.14 | – | 91 | – | – | 50% | 53 | 92 | – | – | –
4 | O=c1oc2ccccc2c2[nH]c(CNCC3CN(c4nccc5ccc(F)cc45)CCO3)cc12 (single isomer, unassigned) [Compound 182, 2-[({[4-(7-fluoroisoquinolin-1-yl)morpholin-2-yl]methyl}amino)methyl][1]benzopyrano[4,3-b]pyrrol-4(1H)-one] | 6.13 | 5.49 | 6.13 | 6.19 | – | 52 | 61 | 92 | 50a % | – | – | – | – | –
5 | O=c1oc2ccccc2c2[nH]c(CNCC3CN(c4nccc5ccc(F)cc45)CCO3)cc12 (single isomer, unassigned) [Compound 183, 2-[({[4-(7-fluoroisoquinolin-1-yl)morpholin-2-yl]methyl}amino)methyl][1]benzopyrano[4,3-b]pyrrol-4(1H)-one] | 6.72 | 5.61 | 6.11 | 6.13 | – | 77 | – | – | 85% | 81 | 84 | – | – | –
6 | O=c1nc(NCC(O)CN2CCN(c3nccc4ccncc34)CC2)c2cc(F)ccc2o1 (centres unmarked) [Compound 157, 6-fluoro-4-({2-hydroxy-3-[4-(2,7-naphthyridin-1-yl)piperazin-1-yl]propyl}amino)-2H-1,3-benzoxazin-2-one] | – | 6.19 | 5.63 | 5.61 | – | – | 83 | 89 | – | – | – | 5.99 | 100 | 100
7 | Fc1ccc2ccnc(N3CCC(NCc4c[nH]c(-c5ccccn5)n4)CC3)c2c1 [Compound 160, 1-(7-fluoroisoquinolin-1-yl)-N-{[2-(pyridin-2-yl)-1H-imidazol-4-yl]methyl}piperidin-4-amine] | – | 4.67 | – | 4.68 | – | – | 50 | 65 | – | – | – | – | – | 60
8 | O=c1nc(NCC(O)CN2CCN(c3nccc4cc[n+]([O-])cc34)CC2)c2cc(F)ccc2o1 (centres unmarked) [Compound 164, 8-(4-(3-((6-fluoro-2-oxo-2H-benzo[e][1,3]oxazin-4-yl)amino)-2-hydroxypropyl)piperazin-1-yl)-2,7-naphthyridine 2-oxide] | 6.15 | 5.75 | 5.42 | 5.84 | – | – | 100 | 100 | – | – | – | – | 100 | 100
9 | O=C1COc2ncc(F)cc2N1[C@H]1CC[C@H](NCc2cc3c(=O)oc4ccc(F)cc4c3[nH]2)CC1 [Compound 193, 8-fluoro-2-({[trans-4-(7-fluoro-2-oxo-2,3-dihydro-1H-pyrido[2,3-b][1,4]oxazin-1-yl)cyclohexyl]amino}methyl)[1]benzopyrano[4,3-b]pyrrol-4(1H)-one] | 5.65 | 5.86 | 6.60 | 6.55 | – | – | 77 | 86 | – | – | – | – | 74 | 50
10 | COc1ccc2ncc(=O)n(C3CCN(CCc4cc5c(=O)oc6ccc(F)cc6c5[nH]4)CC3)c2n1 [Compound 197, 8-fluoro-2-{2-[4-(6-methoxy-3-oxopyrido[2,3-b]pyrazin-4(3H)-yl)piperidin-1-yl]ethyl}[1]benzopyrano[4,3-b]pyrrol-4(1H)-one] | – | – | – | – | – | – | 87 | 90 | – | – | – | – | 79 | 63
11 | COc1cnc2ccc(=O)n(C3CCN(CCc4cc5c(=O)oc6ccc(F)cc6c5[nH]4)CC3)c2n1 [Compound 200] | > 7.00 | > 7.00 | 7.40 | > 7.00 | – | – | 90 | 100 | – | – | – | – | 100 | 100
12 | COc1ccc2ncc(=O)n([C@H]3CC[C@H](NCc4cc5c(=O)oc6ccc(F)cc6c5[nH]4)CC3)c2n1 [Compound 201, 8-fluoro-2-({[trans-4-(6-methoxy-3-oxopyrido[2,3-b]pyrazin-4(3H)-yl)cyclohexyl]amino}methyl)[1]benzopyrano[4,3-b]pyrrol-4(1H)-one] | > 7.00 | > 7.00 | > 7.00 | 6.72 | – | – | 100 | 100 | – | – | – | – | 100 | 100
13 | COc1ccc2ccc(=O)n(C3CCN(CCc4cc5c(=O)oc6ccc(F)cc6c5[nH]4)CC3)c2n1 [Compound 202, 8-fluoro-2-{2-[4-(7-methoxy-2-oxo-1,8-naphthyridin-1(2H)-yl)piperidin-1-yl]ethyl}[1]benzopyrano[4,3-b]pyrrol-4(1H)-one] | – | – | – | – | – | – | 100 | 100 | – | – | – | – | 100 | 100
14 | COc1cnc2ccc(=O)n([C@H]3CC[C@H](NCc4cc5c(=O)oc6ccc(F)cc6c5[nH]4)CC3)c2c1 [Compound 204, 8-fluoro-2-({[trans-4-(7-methoxy-2-oxo-1,5-naphthyridin-1(2H)-yl)cyclohexyl]amino}methyl)[1]benzopyrano[4,3-b]pyrrol-4(1H)-one] | > 7.00 | > 7.00 | 7.30 | 6.19 | 100 | – | 100 | 100 | – | – | – | – | – | 100
15 | COc1cnc2ccc(=O)n([C@H]3CC[C@@H](NCc4cc5c(=O)oc6ccc(F)cc6c5[nH]4)CC3)c2c1 [Compound 205, 8-fluoro-2-({[cis-4-(7-methoxy-2-oxo-1,5-naphthyridin-1(2H)-yl)cyclohexyl]amino}methyl)[1]benzopyrano[4,3-b]pyrrol-4(1H)-one] | 7.00 | 6.51 | 7.00 | 6.77 | 100 | – | 100 | 100 | – | – | – | – | – | 100
16 | N#Cc1ccc2ccc(=O)n([C@H]3CC[C@H](NCc4cc5c(=O)oc6ccc(F)cc6c5[nH]4)CC3)c2c1 [Compound 206, 1-(trans-4-{[(8-fluoro-4-oxo-1,4-dihydro[1]benzopyrano[4,3-b]pyrrol-2-yl)methyl]amino}cyclohexyl)-2-oxo-1,2-dihydroquinoline-7-carbonitrile] | > 7.00 | > 7.00 | 7.30 | 6.89 | 100 | – | 100 | 100 | – | – | – | – | – | 100
17 | O=c1oc2ccc(F)cc2c2[nH]c(CN[C@H]3CC[C@H](n4c(=O)ccc5ncc(F)cc54)CC3)cc12 [Compound 207, 8-fluoro-2-({[trans-4-(7-fluoro-2-oxo-1,5-naphthyridin-1(2H)-yl)cyclohexyl]amino}methyl)[1]benzopyrano[4,3-b]pyrrol-4(1H)-one] | > 7.00 | > 7.00 | > 7.00 | > 7.00 | 100 | – | 100 | 100 | – | – | – | – | – | 100
18 | COc1ccc2ncc(=O)n([C@H]3CC[C@H](NCc4cc5c(=O)oc6ccc(F)cc6c5[nH]4)CC3)c2c1 [Compound 208, 8-fluoro-2-({[trans-4-(7-methoxy-2-oxoquinoxalin-1(2H)-yl)cyclohexyl]amino}methyl)[1]benzopyrano[4,3-b]pyrrol-4(1H)-one] | 6.89 | 6.57 | 7.10 | 6.96 | 100 | – | 100 | 100 | – | – | – | – | – | 100
19 | N#Cc1cnc2c(c1)N([C@H]1CC[C@@H](NCc3cc4c(=O)oc5ccc(F)cc5c4[nH]3)CC1)C(=O)CO2 [Compound 215, 1-(cis-4-{[(8-fluoro-4-oxo-1,4-dihydro[1]benzopyrano[4,3-b]pyrrol-2-yl)methyl]amino}cyclohexyl)-2-oxo-2,3-dihydro-1H-pyrido[2,3-b][1,4]oxazine-7-carbonitrile] | – | – | – | – | – | – | 69 | 96 | – | – | – | – | – | –
